Measured values from the NIST ThermoML archive (doi:10.1016/j.fluid.2019.05.020).
Numbers after ± are expanded uncertainties.

What was measured:
[1] = for Normal melting temperature: Crystal, DTA
[2] = Molar enthalpy of transition or fusion; conditions: Crystal; DSC

Structure (SMILES): CCCCCCCCCCCCO [dodecan-1-ol]
- Normal melting temperature [1]: 24.63 ± 0.39 °C
- Molar enthalpy of transition or fusion [2]: 7.53 ± 2.13 kcal/mol

Structure (SMILES): CCCCCCCCCCCCCCCCCC(=O)O [octadecanoic acid]
- Normal melting temperature [1]: 70.48 ± 0.49 °C
- Molar enthalpy of transition or fusion [2]: 13.4 ± 1.12 kcal/mol

Structure (SMILES): CCCCCCCCCC(=O)O [decanoic acid]
- Normal melting temperature [1]: 32.07 ± 0.49 °C
- Molar enthalpy of transition or fusion [2]: 6.25 ± 0.287 kcal/mol

Structure (SMILES): CCCCCCCCCCCC(=O)O [dodecanoic acid]
- Normal melting temperature [1]: 45.4 ± 0.65 °C
- Molar enthalpy of transition or fusion [2]: 7.99 ± 0.621 kcal/mol

Structure (SMILES): CCCCCCCCCCCCCC(=O)O [tetradecanoic acid]
- Normal melting temperature [1]: 55.90 ± 0.73 °C
- Molar enthalpy of transition or fusion [2]: 9.92 ± 1.63 kcal/mol

Structure (SMILES): CCCCCCCCCCCCCCCC(=O)O [hexadecanoic acid]
- Normal melting temperature [1]: 64.02 ± 0.55 °C
- Molar enthalpy of transition or fusion [2]: 11.7 ± 0.645 kcal/mol

Structure (SMILES): CCCCCCCCCCCCCCCC(=O)OCC(COC(=O)CCCCCCCCCCCCCCC)OC(=O)CCCCCCCCCCCCCCC [1,2,3-propanetriyl tri(hexadecanoate)]
- Normal melting temperature [1]: 66.29 ± 0.65 °C
- Molar enthalpy of transition or fusion [2]: 38.3 ± 2.1 kcal/mol

Structure (SMILES): CCCCCCCCCCCCCCO [1-tetradecanol]
- Normal melting temperature [1]: 37.56 ± 0.91 °C
- Molar enthalpy of transition or fusion [2]: 10.4 ± 1.24 kcal/mol

Structure (SMILES): CCCCCCCCCCO [decan-1-ol]
- Triple point temperature ([1]; Crystal 2, DSC): 275.64 ± 4.1 K
- Normal melting temperature [1]: 6.69 ± 0.55 °C
- Molar enthalpy of transition or fusion [2]: 7.06 ± 0.932 kcal/mol
